Where a name gives a salt, the structure may show the parent alone.

As for `CN1CC(C(=O)c2coc(Cc3ccc(F)cc3)c2)=C(O)C1=O`, the melting point was 158 to 160 °C. The value for `COc1ccccc1Cc1ccc(C(=O)C2=C(O)C(=O)N(C(C)C)C2)o1` was 123 to 124 °C; that for `CC(C)N1CC(C(=O)c2ccc(Cc3cccc4ccccc34)o2)=C(O)C1=O` was 165 to 166.5 °C.

Consider `CC(C)Oc1cccc(Cc2ccc(C(=O)C3=C(O)C(=O)N(C(C)C)C3)o2)c1`, for which the melting point lay within 98 to 99 °C. Under `COc1cc(F)ccc1Cc1ccc(C(=O)C2=C(O)C(=O)N(C(C)C)C2)o1` stands 112 to 113 °C; under `CC(C)Oc1cc(F)ccc1Cc1ccc(C(=O)C2=C(O)C(=O)N(C(C)C)C2)o1`, 98 to 100 °C. Under `CC(C)N1CC(C(=O)c2ccc(Cc3ccc(F)cc3C(N)=O)o2)=C(O)C1=O` stands 215 to 218 °C. Under `CCN1CC(C(=O)c2oc(S(C)(=O)=O)cc2Cc2ccc(F)cc2)=C(O)C1=O` stands 154 to 157 °C; under `COCCN1CC(C(=O)c2ccc(Cc3ccc(F)cc3)o2)=C(O)C1=O`, 105 to 106 °C; under `CN1CC(C(=O)c2oc(C3CCS(=O)(=O)CC3)cc2Cc2ccc(F)cc2)=C(O)C1=O`, 200 to 203 °C.

With `CN1CC(C(=O)c2oc(C(=O)N3CCOCC3)cc2Cc2ccc(F)cc2)=C(O)C1=O`, the melting point was 209 to 211 °C (dec.). Under `CN1CC(C(=O)c2cc(C(=O)O)c(Cc3ccc(F)cc3)o2)=C(O)C1=O` stands 255 to 258 °C (dec.); under `CCNC(=O)c1cc(C(=O)C2=C(O)C(=O)N(C)C2)oc1Cc1ccc(F)cc1`, 169 to 170 °C; under `O=C(C1=C(O)C(=O)N(C2CCCC2)C1)c1ccc(Cc2ccc(F)cc2)o1`, 157 to 159 °C. Under `CC(O)CN1CC(C(=O)c2ccc(Cc3ccc(F)cc3)o2)=C(O)C1=O` (centres unmarked) stands 172 °C.

In turn, `O=C(C1=C(O)C(=O)N(CC(O)CO)C1)c1ccc(Cc2ccc(F)cc2)o1` (centres unmarked) came in with a melting point of 119 to 120 °C.

Take `O=C1NCC(C(=O)c2ccc(Cc3ccc(F)cc3)o2)=C1O`: the melting point was in the range of 178 to 179 °C.

As to `O=C(C1=C(O)C(=O)N(CCN2CCCCC2)C1)c1ccc(Cc2ccc(F)cc2)o1`, the melting point was 228 to 232 °C (dec.). The value for `CN1CC(C(=O)c2ncc(Cc3ccc(F)cc3)s2)=C(O)C1=O` was 230 to 231 °C; that for `CC(C)N1CC(C(=O)c2occc2Cc2ccc(F)cc2)=C(O)C1=O` was 197 to 199 °C; that for `CCN1CC(C(=O)c2occc2Cc2ccc(F)cc2)=C(O)C1=O` was 167 °C. Under `Cc1cc(Cc2ccc(F)cc2)c(C(=O)C2=C(O)C(=O)N(C)C2)o1` stands 154 to 156 °C. The value for `Cc1cc(Cc2ccc(F)cc2)c(C(=O)C2=C(O)C(=O)N(C(C)C)C2)o1` was 125 to 127 °C; that for `CN1CC(C(=O)c2oc(Cc3ccc(F)cc3)cc2Cc2ccc(F)cc2)=C(O)C1=O` was 157 to 160 °C. In turn, `Cc1oc(C(=O)C2=C(O)C(=O)N(C)C2)c(Cc2ccc(F)cc2)c1C` showed a melting point of 202 to 204 °C.

As to `CCN1CC(C(=O)c2oc(C(C)(C)C)cc2Cc2ccc(F)cc2)=C(O)C1=O`, the melting point lay within 141 to 143 °C. Under `CC(C)N1CC(C(=O)c2oc(C(C)(C)C)cc2Cc2ccc(F)cc2)=C(O)C1=O` stands 146 to 147 °C.

With `CN1CC(C(=O)c2sccc2Cc2ccc(F)cc2)=C(O)C1=O`, the melting point lay in the range of 181 to 183 °C. The value for `Cc1nc(C(=O)C2=C(O)C(=O)N(C)C2)c(Cc2ccc(F)cc2)o1` was 170 °C; that for `CC(C)N1CC(C(=O)c2c[nH]c(Cc3ccc(F)cc3)n2)=C(O)C1=O` was 220 °C.

The molecule `CC(C)N1CC(C(=O)c2cn(Cc3ccc(F)cc3)cn2)=C(O)C1=O` yielded a melting point of 224 to 226 °C. Under `CC(C)N1CC(C(=O)c2cncn2Cc2ccc(F)cc2)=C(O)C1=O` stands 156 to 159 °C; under `CN1CC(C(=O)c2cccn2Cc2ccc(F)cc2)=C(O)C1=O`, 150 to 151 °C; under `CN1CC(c2cnc(Cc3ccc(F)cc3)cn2)=C(O)C1=O`, 223 to 225 °C.

As to `CC(C)N1CC(c2cnc(Cc3ccc(F)cc3)cn2)=C(O)C1=O`, the melting point was 207 to 209 °C.

Turning to `CN1CC(c2ncnc(OCc3ccc(F)cc3)n2)=C(O)C1=O`, the melting point was in the range of 169 to 171 °C.

Molecule `CC(C)N1CC(c2ncnc(OCc3ccc(F)cc3)n2)=C(O)C1=O` yielded a melting point of 105 to 106 °C. Under `CC(C)N1CC(c2ncc(CCc3ccc(F)cc3)s2)=C(O)C1=O` stands 208 to 210 °C. Under `CC(C)N1CC(c2cc(OCc3ccccc3)ncn2)=C(O)C1=O` stands 177 to 178 °C; under `CC(C)N1CC(c2cc(CCc3ccc(F)cc3)ncn2)=C(O)C1=O`, 225 to 228 °C. The value for `CN1CC(c2cc(C(Cc3ccc(F)cc3)Cc3ccc(F)cc3)ncn2)=C(O)C1=O` was 162 to 164 °C. `CN1CC(c2ccc(Oc3ccc(F)cc3)cn2)=C(O)C1=O`: the melting point was in the range of 229 to 230 °C. For `COc1ccc(CN2CC(c3ccc(Cc4ccc(F)cc4)cn3)=C(O)C2=O)cc1`, the melting point fell in the range of 164 to 166 °C. The value for `CN1CC(c2cc(CCc3ccc(F)cc3)ccn2)=C(O)C1=O` was 167 to 168 °C; that for `CC(C)N1CC(c2cc(CCc3ccc(F)cc3)ccn2)=C(O)C1=O` was 167 to 168 °C. Turning to `CN1CC(c2ccc(OCc3ccc(F)cc3)cn2)=C(O)C1=O`, the melting point was 210 to 211 °C. On to `CC(C)N1CC(c2ccc([S+]([O-])c3ccc(F)cc3)cn2)=C(O)C1=O` (centres unmarked), for which the melting point lay in the range of 205 to 207 °C. Molecule `CN1CC(c2ncc(Cc3ccc(F)cc3)cn2)=C(O)C1=O` came in with a melting point of 163 to 165 °C.

Molecule `CC(C)N1CC(c2ncc(Cc3ccc(F)cc3)cn2)=C(O)C1=O` displayed a melting point of 155 to 157 °C. Take `CC(C)N1CC(c2ncc(Oc3ccc(F)cc3)cn2)=C(O)C1=O`: the melting point is 165 to 166 °C.

Turning to `CC(C)N1CC(c2cc(CCc3ccccc3)ncn2)=C(O)C1=O`, the melting point lay within 229 to 231 °C. `O=C1C(O)=C(c2cc(CCc3ccccc3)ncn2)CN1Cc1ccccc1` displayed a melting point of 222 to 223 °C.

In the case of `CC(C)(C)N1CC(c2cc(CCc3ccccc3)ncn2)=C(O)C1=O`, the melting point fell in the range of 199 to 200 °C. Under `CC(C)N1CC(c2nccc(OCc3ccccc3)n2)=C(O)C1=O` stands 155 to 157 °C; under `CN1CC(c2nccc(OCc3ccc(F)cc3)n2)=C(O)C1=O`, 227 to 230 °C. For the molecule `CC(C)N1CC(c2nccc(OCc3ccc(F)cc3)n2)=C(O)C1=O`, the melting point is 148 to 149 °C.

`CN1CC(c2ncc(CCc3ccc(F)cc3)cn2)=C(O)C1=O`: the melting point was 158 to 160 °C. Under `CC(C)N1CC(c2nccc(CCc3ccccc3)n2)=C(O)C1=O` stands 126 to 127 °C; under `CC(C)N1CC(c2ccc(Oc3ccccc3)nn2)=C(O)C1=O`, 203 to 205 °C.

Turning to `CC(C)N1CC(c2cc(CCc3ccccc3)cnn2)=C(O)C1=O`, the melting point was in the range of 182 to 184 °C. `CC(C)N1CC(c2cnc(Oc3ccccc3)cn2)=C(O)C1=O` showed a melting point of 216 to 217 °C. Under `CN1CC(c2cnc(Oc3ccc(F)cc3)cn2)=C(O)C1=O` stands 237 to 238 °C; under `CC(C)N1CC(c2cnc(Oc3ccc(F)cc3)cn2)=C(O)C1=O`, 227 to 229 °C. The molecule `Cc1nc(-c2oc3cccc(OCc4ccc(F)cc4)c3c(=O)c2O)n[nH]1` had a melting point of 289 to 292 °C. The value for `O=c1c(O)c(-c2ncc(Oc3ccccc3)cn2)oc2ccccc12` was 212 °C.

As to `CN(C)C(=O)c1cc(OCc2ccc(F)cc2)c2c(=O)c(O)c(-c3ncnn3C)oc2c1`, the melting point lay within 227 to 229 °C. The value for `COC(=O)c1cc(OCc2ccc(F)cc2)c2c(=O)c(O)c(-c3ncnn3C)oc2c1` was 253 to 255 °C; that for `Cn1ncnc1-c1oc2cc(C(=O)O)cc(OCc3ccc(F)cc3)c2c(=O)c1O` was 280 to 282 °C; that for `Cn1ncnc1-c1oc2c(Br)ccc(OCc3ccc(F)cc3)c2c(=O)c1O` was 220 to 223 °C. Under `Cn1ncnc1-c1oc2cc(C(N)=O)cc(OCc3ccc(F)cc3)c2c(=O)c1O` stands 257 to 258 °C. Under `COCNC(=O)c1cc(OCc2ccc(F)cc2)c2c(=O)c(O)c(-c3ncnn3C)oc2c1` stands 220 to 221 °C; under `CN(C)C(=O)c1ccc(OCc2ccc(F)cc2)c2c(=O)c(O)c(-c3ncnn3C)oc12`, 246 to 247 °C. For `Cn1ncnc1-c1oc2cccc(OCCc3ccc(F)cc3)c2c(=O)c1O`, the melting point lay within 215 to 217 °C.

The molecule `O=C(NCc1ccc(F)cc1)c1oc2ccccc2c(=O)c1O` came in with a melting point of 235 to 236 °C. `COCCNC(=O)c1cc(=O)c(O)c(C(=O)c2ccc(Cc3ccc(F)cc3)o2)o1` gave a melting point of 177 to 179 °C. Under `O=C(c1ccc(Cc2ccc(F)cc2)o1)c1occ(Br)c(=O)c1O` stands 191 to 192 °C.

Consider `O=C1NCCC(C(=O)c2ccc(Cc3ccc(F)cc3)o2)=C1O`, for which the melting point was 166 to 168 °C. The value for `COCn1ccc(C(=O)c2ccc(Cc3ccc(F)cc3)o2)c(O)c1=O` was 128 to 130 °C; that for `O=C(c1ccc(Cc2ccc(F)cc2)o1)c1cc[nH]c(=O)c1O` was 229 to 231 °C; that for `CN1CC(C(=O)c2ncoc2Cc2ccc(F)cc2)=C(O)C1=O` (as salt: salt) was 257 °C.

What is called melting point is the temperature, or range, at which the solid turns liquid.

Source of the values: patent US9572813B2, “Antiviral agent” (SHIONOGI & CO., LTD., priority 2001, dated 2017).
